Laboratory results: patent US20240301218A1, “Polymeric Antifouling Coating with Antimicrobial Peptides” (THE UNIVERSITY OF BRITISH COLUMBIA, priority 2021, published 2024)
Values after ≈ are worked out from the molar mass of the structure shown. Like-named read-outs stand apart in the source and are kept apart here. Residues, ends and D or L forms follow the SMILES beside them. No end group written: not given here.

Assays:
[1] = system: S. aureus (Xen36); experiment: 96-well plate screening of surface conjugated AMPs for biofilm inhibition; type: cell-based; conditions: AMP tethered on BA coating, polypropylene 96-well plate, vs uncoated pp
Procedure: (§1) Screening and Identification of Surface Conjugated AMPs with Anti-Biofilm Activity on a 96-Well Plate Bioluminescence-tagged bacterial strains used in this study included S. aureus (Xen36), P. aeruginosa (PAO1.lux), E. coli (E38.lux), and S. saprophyticus (ATCC 15305). Bacteria were cultured in LB, with shaking at 250 rpm, at 37° C. Bacterial growth was monitored using a spectrophotometer at the optical density of 600 nm (OD600). S. aureus Xen36 was purchased from PerkinElmer Inc.™ while P. aeruginosa PAO1.lux and E. coli E38.lux were generated by conjugating in plasmids that constitutively-expressed lux reporter genes^[40]. The biofilm inhibitory activity of AMPs conjugated onto coated polypropylene surfaces were evaluated in a static microtitre plate assay as previously described with some modifications^[41]. For all experiments, 96-well Costar™ polypropylene plates (Corning™) were used. An overnight culture of selected bacterial strains in LB was diluted to an OD600=0.01 in TSB or basal medium 2 (BM2) supplemented with 0.1% or 0.4% glucose and 0.5 mM MgSO4, (the biofilm growth medium for different bacteria is listed in TABLE 1).
(§2) For inhibition experiments, 100 μL of the diluted overnight culture was added to each well in the plate coated with control coating and AMP coating, respectively. After overnight growth under static condition at 37° C., planktonic cells were removed, adhered biomass rinsed three times with distilled water and subsequently the remaining adhered total biomass was quantified by measuring the luminescence (Total white light) using the Synergy H1™ multimode microtitre plate reader (BioTek™). The remaining adhered S. saprophyticus biomass was quantified using the crystal violet (CV) staining. Briefly, each well was added and incubated with 125 μL of 0.1% (v/v) CV solution for 30 minutes at room temperature with moderate shaking. Then, CV was discarded, and each well was rinsed three times with distilled water. The remaining CV stain was resuspended in 150 μL of 70% ethanol for 30 minutes at room temperature with moderate shaking and then quantified by measuring OD59, using the Synergy H1™ multimode microplate plate reader (BioTek™). The percent biofilm inhibition was calculated in relation to the amount of biofilm grown in the absence of the coating (defined as 100%) and the media sterility control (defined as 0% growth). The experiment was repeated 3 times with 3 technical replicates per biological replicate.

[2] = system: S. saprophyticus (ATCC 15305); experiment: as above; type: cell-based; conditions: AMP tethered on BA coating, polypropylene 96-well plate, 24 h, vs uncoated pp
Procedure: as §1, §2

[3] = system: P. aeruginosa (PAO1.lux); experiment: as above; type: cell-based; conditions: AMP tethered on BA coating, polypropylene 96-well plate, vs uncoated pp
Procedure: as §1, §2

[4] = system: E. coli
Source text: (§3) Ultra-high molecular weight poly(N,N-dimethylacrylamide) (uhPDMA) and high molecular weight poly(N,N-dimethylacrylamide) (hPDMA) were synthesized by atom transfer radical polymerization 391. N-(3-Aminopropyl) methacrylamide hydrochloride (APMA) (98%) was purchased from Polysciences™, USA and was used as supplied. All other reagents including 1, 1, 4, 7, 10, 10-hexamethyl triethylene tetramine (HMTETA) (97%), Tris[2-(dimethylamino)ethyl]amine (Me6TREN) 97%, methyl 2-chloropropionate (97%), CuCl (99%), CuCl2 (99%), 1-thioglycerol (97%) were purchased from Sigma-Aldrich™ (Oakville, ON). A single-side-polished silicon wafer (University Wafer™, Boston, MA) deposited with titanium was prepared by e-beam evaporation of titanium. The process was progressed in a home-assembled Evaporator 2000™ system equipped with a quartz crystal microbalance to monitor the film thickness and a cryo pump to reach high-vacuum (10^−7-10^−6 Torr) condition. After deposition, the substrates were washed with Milli-Q water™, dried via a nitrogen gun, and stored for further usage. SurFlash™I.V. Catheter Cat. #SR*FF1451, #SR*FF2419 (14 Gauge and 24 Gauge) made of polyurethane (PU), were purchased from Terumo™. […] Pure products were finally characterized by analytical reverse phase high performance liquid chromatography (RP-HPLC) and liquid chromatography-mass spectrometry (LC-MS). The broth microdilution method with minor modifications for cationic peptides was used for measuring the MICs of peptides.

[5] = system: S. saprophyticus
Source text: as §3

[6] = system: S. aureus
Source text: as §3

[7] = system: P. aeruginosa
Source text: as §3

[8] = system: E. coli (E38.lux); experiment: 96-well plate screening of surface conjugated AMPs for biofilm inhibition; type: cell-based; conditions: AMP tethered on BA coating, polypropylene 96-well plate, vs uncoated pp
Procedure: as §1, §2

[9] = system: S. epidermidis; experiment: Antimicrobial activity of BA-AMPs coating against planktonic bacteria; type: cell-based; conditions: MHB medium, 24 h, coated PP wells
Procedure: The uhPDMA was prepared at a concentration of 36 mg mL^−1 in sodium acetate buffer (50 mM, pH=5). Dopamine was freshly prepared at a concentration of 12 mg mL^−1 in sodium acetate buffer (50 mM, pH=5) before each experiment. Sodium periodate (NaIO4) was freshly prepared at a concentration of 28 mg mL-1 in sodium acetate buffer (50 mm, pH=5). The dopamine solution was then mixed with uhPDMA solution with a volume ratio of 1:5 (dopamine:uhPDMA). Sodium periodate solution was then added to generate a final concentration of uhPDMA at 30 mg mL^−1, dopamine at 2 mg mL^−1, and NaIO4 at 0.9 mg mL^−1. Mixed solution (200 μL) was added into the wells of 96-well polypropylene plate. The plate was placed onto a rocking platform with shaking at 50 rpm for 2 hr. The coated plate was then rinsed by Milli-Q™ water and dried for further characterization. Peptide solutions (200 μL, 0.25 mg/mL in 10 mM phosphate buffer, pH ˜8) were added into the wells and incubated for 24 h. The peptide-conjugated plate were rinsed with Milli-Q™ water thoroughly and dried under argon flow. […] After 24 hrs growth under shaking condition at room temperature, bacteria culture (100 μL) was transferred to sterile clear polystyrene plate and the optical density was read using UV-vis spectrometer at wavelength 595 nm. […]

For CC[C@@H](C)[C@@H](NC(=O)[C@@H](C)NC(=O)[C@@H](CCCNC(=N)N)NC(=O)[C@@H](Cc1c[nH]c2ccccc12)NC(=O)[C@@H](CCC(N)=O)NC(=O)[C@H](N)C(C)C)C(=O)N[C@H](CCCNC(=N)N)C(=O)N[C@@H](C(=O)N[C@H](CCCNC(=N)N)C(=O)N[C@@H](C(=O)N[C@@H](C(=O)N[C@H](CCCNC(=N)N)C(=O)N[C@H](CS)C(N)=O)[C@H](C)CC)C(C)C)C(C)C [DJK5C, vqwrairvrvirc-NH2] (HELM PEPTIDE1{[dV].[dQ].[dW].[dR].[dA].[dI].[dR].[dV].[dR].[dV].[dI].[dR].[dC].[am]}$$$$V2.0; N-terminus assumed), the “reduction of biofilm formation” value [1] was 95.1%, the “reduction of biofilm formation” value [2] was roughly 100% and the “reduction of biofilm formation” value [3] was 99.1%. For the same molecule, the “MIC E. coli” value [4] was 4 µg/mL (≈ 2.42 µM), the “MIC S. saprophyticus” value [5] was 2 µg/mL (≈ 1.21 µM) and the “MIC S. aureus” value [6] was 16 µg/mL (≈ 9.67 µM). For the same molecule, the “MIC P. aeruginosa” value [7] was 16 µg/mL (≈ 9.67 µM).

For “RRWRIVVIRVRRC-NH2 [E6, RRWRIVVIRVRRC-NH2]”, the “reduction of biofilm formation” value [1] was 93%, the “reduction of biofilm formation” value [3] was 98.2% and the “reduction of biofilm formation” value [8] was 91.8%. For the same molecule, the “killing of planktonic S. epidermidis” value [9] was “complete killing”, the “MIC E. coli” value [4] was 8 µg/mL and the “MIC S. saprophyticus” value [5] was 4 µg/mL. For the same molecule, the “MIC S. aureus” value [6] was 64 µg/mL and the “MIC P. aeruginosa” value [7] was 32 µg/mL.

In the case of CC[C@H](C)[C@H](NC(=O)[C@H](CCCNC(=N)N)NC(=O)[C@H](Cc1c[nH]c2ccccc12)NC(=O)[C@H](CCCNC(=N)N)NC(=O)[C@@H](N)CCCCN)C(=O)N[C@@H](CCCNC(=N)N)C(=O)N[C@H](C(=O)N[C@@H](CCCNC(=N)N)C(=O)N[C@H](C(=O)N[C@H](C(=O)N[C@@H](CCCNC(=N)N)C(=O)N[C@@H](CCCCN)C(=O)NCCC(=O)NCCC(=O)N[C@@H](CS)C(N)=O)[C@@H](C)CC)C(C)C)C(C)C [Tet20LC, KRWRIRVRVIRK-bA-bA-C—NH2] (HELM PEPTIDE1{K.R.W.R.I.R.V.R.V.I.R.K.[bAla].[bAla].C.[am]}$$$$V2.0; N-terminus assumed), the “reduction of biofilm formation” value [1] is reported as 100%, the “reduction of biofilm formation” value [2] is reported as roughly 100% and the “reduction of biofilm formation” value [3] is reported as 100%. For the same molecule, the “MIC E. coli” value [4] was 4 µg/mL (≈ 2.09 µM), the “MIC S. saprophyticus” value [5] was 2 µg/mL (≈ 1.05 µM) and the “MIC S. aureus” value [6] was 64 µg/mL (≈ 33.5 µM). For the same molecule, the “MIC P. aeruginosa” value [7] was 16 µg/mL (≈ 8.38 µM).

In the case of “rivrvrairwqv (RIVRVRAIRWQV; HELM PEPTIDE1{[dR].[dI].[dV].[dR].[dV].[dR].[dA].[dI].[dR].[dW].[dQ].[dV].[am]}$$$$V2.0; N-terminus assumed; SMILES CC[C@@H](C)[C@@H](NC(=O)[C@H](N)CCCNC(=N)N)C(=O)N[C@@H](C(=O)N[C@H](CCCNC(=N)N)C(=O)N[C@@H](C(=O)N[C@H](CCCNC(=N)N)C(=O)N[C@H](C)C(=O)N[C@@H](C(=O)N[C@H](CCCNC(=N)N)C(=O)N[C@H](Cc1c[nH]c2ccccc12)C(=O)N[C@H](CCC(N)=O)C(=O)N[C@@H](C(N)=O)C(C)C)[C@H](C)CC)C(C)C)C(C)C) [RI-DJK5]”, the “reduction of biofilm formation” value [3] is reported as 76.2%.

For “KRWRIRVRVIRKC-NH2 [Tet20C, KRWRIRVRVIRKC-NH2]”, the “reduction of biofilm formation” value [1] was 98.8%, the “reduction of biofilm formation” value [2] was roughly 100% and the “reduction of biofilm formation” value [3] was 99.6%. For the same molecule, the “MIC E. coli” value [4] was 4 µg/mL, the “MIC S. saprophyticus” value [5] was 2 µg/mL and the “MIC S. aureus” value [6] was 64 µg/mL. For the same molecule, the “MIC P. aeruginosa” value [7] was 8 µg/mL.

In the case of “vqwrrirvwvir (VQWRRIRVWVIR; HELM PEPTIDE1{[dV].[dQ].[dW].[dR].[dR].[dI].[dR].[dV].[dW].[dV].[dI].[dR].[am]}$$$$V2.0; N-terminus assumed; SMILES CC[C@@H](C)[C@@H](NC(=O)[C@@H](CCCNC(=N)N)NC(=O)[C@@H](CCCNC(=N)N)NC(=O)[C@@H](Cc1c[nH]c2ccccc12)NC(=O)[C@@H](CCC(N)=O)NC(=O)[C@H](N)C(C)C)C(=O)N[C@H](CCCNC(=N)N)C(=O)N[C@@H](C(=O)N[C@H](Cc1c[nH]c2ccccc12)C(=O)N[C@@H](C(=O)N[C@@H](C(=O)N[C@H](CCCNC(=N)N)C(N)=O)[C@H](C)CC)C(C)C)C(C)C) [DJK6]”, the “reduction of biofilm formation” value [2] is reported as 83.5% and the “reduction of biofilm formation” value [3] is reported as 58.8%.

With “ILVRWIRWRIQWC-NH2 [3002C, ILVRWIRWRIQWC-NH2]” the “reduction of biofilm formation” value [1] was 93.6%, the “reduction of biofilm formation” value [3] was 32.4% and the “MIC E. coli” value [4] was 16 µg/mL. The “MIC S. saprophyticus” value [5] was 8 µg/mL, the “MIC S. aureus” value [6] was 32 µg/mL and the “MIC P. aeruginosa” value [7] was 128 µg/mL.

With CC[C@@H](C)[C@@H](NC(=O)[C@@H](C)NC(=O)[C@@H](CCCNC(=N)N)NC(=O)[C@@H](Cc1c[nH]c2ccccc12)NC(=O)[C@@H](CCC(N)=O)NC(=O)[C@H](N)C(C)C)C(=O)N[C@H](CCCNC(=N)N)C(=O)N[C@@H](C(=O)N[C@H](CCCNC(=N)N)C(=O)N[C@@H](C(=O)N[C@@H](C(=O)N[C@H](CCCNC(=N)N)C(N)=O)[C@H](C)CC)C(C)C)C(C)C [DJK5, vqwrairvrvir] (HELM PEPTIDE1{[dV].[dQ].[dW].[dR].[dA].[dI].[dR].[dV].[dR].[dV].[dI].[dR].[am]}$$$$V2.0; N-terminus assumed) the “reduction of biofilm formation” value [1] was 90.5%, the “reduction of biofilm formation” value [2] was 83.4% and the “MIC E. coli” value [4] was 1.6 µg/mL (≈ 1.03 µM). For the same molecule, the “MIC S. saprophyticus” value [5] was 2 µg/mL (≈ 1.29 µM), the “MIC S. aureus” value [6] was 16 µg/mL (≈ 10.3 µM) and the “MIC P. aeruginosa” value [7] was 16 µg/mL (≈ 10.3 µM).

“VRLIVAVRIWRR-NH2 [IDR-1018, VRLIVAVRIWRR-NH2]” was tested, and the “reduction of biofilm formation” value [1] was 93.5%, the “reduction of biofilm formation” value [2] was 82.2% and the “reduction of biofilm formation” value [3] was 83.2%. For the same molecule, the “MIC E. coli” value ([4]; soluble peptide) was 9.3 µg/mL, the “MIC S. saprophyticus” value ([5]; soluble peptide) was 2 µg/mL and the “MIC S. aureus” value ([6]; soluble peptide) was 16 µg/mL. The “MIC P. aeruginosa” value ([7]; soluble peptide) was 64 µg/mL.
